# Assay results reported in patent US20100203531A1, “PREDICTING RESPONSIVENESS TO TEMOZOLOMIDE” (priority 2007, published 2010).
# Columns and labels:
# Format in all cases: in vivo, human
# GBM8 xenograft = assay: Orthotopic intracranial xenograft survival, GBM8
# Procedure: (§1) In vivo sensitivity of GBM lines to TMZ: To address whether MGMT methylation or polypeptide expression status are predictive of TMZ responsiveness, the effects of TMZ therapy on survival were evaluated in the panel of xenografts using an orthotopic therapy model. Mice with established intracranial xenografts were treated with 66 mg/kg TMZ or placebo daily for 5 days by oral gavage. This TMZ dosing regimen provides the equivalent dose-exposure to TMZ as the standard adjuvant TMZ dosing regimen for GBM patients of 200 mg/m^2×5 days. All mice were followed until reaching a moribund state, and the relative prolongation of survival following TMZ treatment was calculated for each line relative to placebo treatment (Table 1). […] Further analysis of the relationship between TMZ responsiveness and MGMT methylation status in 17 xenograft lines was conducted by comparing the distribution of median survival prolongation results for methylation-positive and methylation-negative groups of xenografts. From this analysis, MGMT methylation was modestly associated with increased TMZ sensitivity (FIG. 2, p=0.039, two-sample rank sum test). In a similar analysis of MGMT polypeptide expression levels, high levels of MGMT polypeptide expression were invariably associated with relative TMZ resistance, and the absence of MGMT polypeptide expression was associated with significant TMZ sensitivity (r=−0.73, p=0.005). […] While p53, PTEN and EGFR function have been linked to TMZ sensitivity in some models, no correlation between genetic alterations of these genes and TMZ responsiveness was observed.
# (§2) Orthotopic model: Therapy evaluations were conducted using an orthotopic tumor model as described elsewhere (Sarkaria et al., Clin Cancer Res, 12:2264-2271 (2006), Giannini et al., Neuro-Oncology, 7:164-176, (2005)). Athymic nude mice (NCI, Frederick, Md.) with established intracranial tumors were randomized into groups of 8 to 10 mice each and treatment was initiated 2 weeks before mice were expected to become moribund. TMZ was purchased from the Mayo Clinic Pharmacy, suspended in Ora-plus (Paddock Laboratories, Minneapolis. MN), and administered by oral gavage at 66 mg/kg for 5 days. Mice were observed daily and euthanized when moribund.
# Statistical analysis: Survival distributions were estimated using the Kaplan-Meier method. The log rank test was used to compare survival across treatment groups. All GBM experiments were pooled and Classification and Regression Tree analysis (CART) was used to identify which CpG sites in the MS-PCR assay (CpG sites 78-82, 86-89) were predictive of overall survival in TMZ treated mice. The two-sample rank sum test was used to compare relative differences in survival relative to MGMT MS-PCR status or CpG89 methylation status. […]
# GBM10 xenograft = assay: Orthotopic intracranial xenograft survival, GBM10
# Procedure: as §1
# as §2, with “MN), and administered by oral gavage at 66 mg/kg for 5 days.” left out
# (§3) Statistical analysis: Survival distributions were estimated using the Kaplan-Meier method. The log rank test was used to compare survival across treatment groups. All GBM experiments were pooled and Classification and Regression Tree analysis (CART) was used to identify which CpG sites in the MS-PCR assay (CpG sites 78-82, 86-89) were predictive of overall survival in TMZ treated mice. The two-sample rank sum test was used to compare relative differences in survival relative to MGMT MS-PCR status or CpG89 methylation status. Spearman's correlation coefficient was used to assess the association of relative median survival and protein expression levels of MGMT relative to 13-actin.
# GBM12 xenograft = assay: Orthotopic intracranial xenograft survival, GBM12
# Procedure: as §1
# as §2, with “MN), and administered by oral gavage at 66 mg/kg for 5 days.” left out
# as §3
# GBM14 xenograft = assay: Orthotopic intracranial xenograft survival, GBM14
# Procedure: as §1
# as §2, with “MN), and administered by oral gavage at 66 mg/kg for 5 days.” left out
# as §3
# GBM26 xenograft = assay: Orthotopic intracranial xenograft survival, GBM26; conditions: for Survival Prolongation: median survival relative to placebo, 66 mg/kg oral for 5 days (Table 3), 66 mg/kg
# Procedure: as §1, §2, §3
# GBM38 xenograft = assay: Orthotopic intracranial xenograft survival, GBM38
# Procedure: (§4) In vivo sensitivity of GBM lines to TMZ: To address whether MGMT methylation or polypeptide expression status are predictive of TMZ responsiveness, the effects of TMZ therapy on survival were evaluated in the panel of xenografts using an orthotopic therapy model. Mice with established intracranial xenografts were treated with 66 mg/kg TMZ or placebo daily for 5 days by oral gavage. This TMZ dosing regimen provides the equivalent dose-exposure to TMZ as the standard adjuvant TMZ dosing regimen for GBM patients of 200 mg/m^2×5 days. All mice were followed until reaching a moribund state, and the relative prolongation of survival following TMZ treatment was calculated for each line relative to placebo treatment (Table 1). […] Further analysis of the relationship between TMZ responsiveness and MGMT methylation status in 17 xenograft lines was conducted by comparing the distribution of median survival prolongation results for methylation-positive and methylation-negative groups of xenografts. From this analysis, MGMT methylation was modestly associated with increased TMZ sensitivity (FIG. 2, p=0.039, two-sample rank sum test). […]
# GBM59 xenograft = assay: Orthotopic intracranial xenograft survival, GBM59
# Procedure: as §4
# [1] = tested on: GBM14 cells transduced with a luciferase-expressing lentiviral construct; assay: Salvage TMZ therapy in intracranial GBM14-luciferase tumors with bioluminescence imaging
# Procedure: Development of resistance to TMZ during in vivo therapy: The effect of salvage TMZ therapy in recurrent tumors was studied in the GBM14 xenograft line with the assistance of bioluminescence imaging (BLI). In this study, GBM14 cells were transduced with a luciferase-expressing lentiviral construct and then used to establish intracranial tumors. Mice were randomized into three groups: a) vehicle control, b) single dose of 120 mg/kg TMZ, c) initial TMZ dose followed by a second TMZ dose at the time of tumor regrowth, as indicated by BLI (FIGS. 7A and B). […] Extrapolating to the clinic, the apparent development of TMZ resistance during the course of treatment is reminiscent of patients who experience an initial response to TMZ therapy but then develop progressive disease during latter cycles of TMZ treatment.
structure (smiles),measurement,setting,value
"Cn1nnc2c(C(N)=O)ncn2c1=O [TMZ, Temozolomide]",Survival Prolongation,"GBM8 xenograft; GBM8, median survival relative to placebo, 66 mg/kg oral for 5 days (Table 3)",110%
same,Survival benefit,"GBM8 xenograft; GBM8, prolongation of median survival relative to placebo, TMZ 66 mg/kg oral x5 days",110%
same,TMZ median survival,"GBM8 xenograft; GBM8 intracranial xenograft, nude mice, TMZ 66 mg/kg oral daily x5 days",124
same,Temozolomide median survival,"GBM8 xenograft; GBM8 intracranial, athymic nude mice, 66 mg/kg oral gavage for 5 days (Table 3)",124
same,Survival Prolongation,"GBM10 xenograft; GBM10, median survival relative to placebo, 66 mg/kg oral for 5 days (Table 3)",34%
same,Survival benefit,"GBM10 xenograft; GBM10, prolongation of median survival relative to placebo, TMZ 66 mg/kg oral x5 days",34%
same,Survival benefit,"GBM10 xenograft; GBM10 generation 8, TMZ 120 mg/kg for 5 days, intracranial",6%
same,Survival benefit,"GBM10 xenograft; GBM10 generation 19, TMZ 66 mg/kg for 5 days, intracranial",34%
same,TMZ median survival,"GBM10 xenograft; GBM10 intracranial xenograft, nude mice, TMZ 66 mg/kg oral daily x5 days",55
same,Temozolomide median survival,"GBM10 xenograft; GBM10 intracranial, athymic nude mice, 66 mg/kg oral gavage for 5 days (Table 3)",55
same,Survival Prolongation,"GBM12 xenograft; GBM12, median survival relative to placebo, 66 mg/kg oral for 5 days (Table 3)",253%
same,Survival benefit,"GBM12 xenograft; GBM12, prolongation of median survival relative to placebo, TMZ 66 mg/kg oral x5 days",253%
same,Survival benefit,"GBM12 xenograft; GBM12 generation 10, TMZ 120 mg/kg for 5 days, intracranial",268%
same,Survival benefit,"GBM12 xenograft; GBM12 generation 30, TMZ 66 mg/kg for 5 days, intracranial",164%
same,TMZ median survival,"GBM12 xenograft; GBM12 intracranial xenograft, nude mice, TMZ 66 mg/kg oral daily x5 days",53
same,Temozolomide median survival,"GBM12 xenograft; GBM12 intracranial, athymic nude mice, 66 mg/kg oral gavage for 5 days (Table 3)",53
same,Survival Prolongation,"GBM14 xenograft; GBM14, median survival relative to placebo, 66 mg/kg oral for 5 days (Table 3)",558%
same,Survival benefit,"GBM14 xenograft; GBM14, prolongation of median survival relative to placebo, TMZ 66 mg/kg oral x5 days",558%
same,Survival benefit,"GBM14 xenograft; GBM14 generation 21, TMZ 120 mg/kg for 5 days, intracranial",148%
same,Survival benefit,"GBM14 xenograft; GBM14 generation 33, TMZ 66 mg/kg for 5 days, intracranial",421%
same,TMZ median survival,"GBM14 xenograft; GBM14 intracranial xenograft, nude mice, TMZ 66 mg/kg oral daily x5 days",154
same,Temozolomide median survival,"GBM14 xenograft; GBM14 intracranial, athymic nude mice, 66 mg/kg oral gavage for 5 days (Table 3)",217
same,Survival Prolongation,GBM26 xenograft; GBM26,21%
same,Survival Prolongation,"GBM26 xenograft; GBM26, listed as Temozolomide",21%
same,Survival benefit,"GBM26 xenograft; GBM26, prolongation of median survival relative to placebo, TMZ 66 mg/kg oral x5 days",21%
same,TMZ median survival,"GBM26 xenograft; GBM26 intracranial xenograft, nude mice, TMZ 66 mg/kg oral daily x5 days",100
same,Temozolomide median survival,"GBM26 xenograft; GBM26 intracranial, athymic nude mice, 66 mg/kg oral gavage for 5 days (Table 3)",100
same,Survival benefit,"GBM38 xenograft; GBM38, prolongation of median survival relative to placebo, TMZ 66 mg/kg oral x5 days",45%
same,TMZ median survival,"GBM38 xenograft; GBM38 intracranial xenograft, nude mice, TMZ 66 mg/kg oral daily x5 days",80
same,Survival benefit,"GBM59 xenograft; GBM59, prolongation of median survival relative to placebo, TMZ 66 mg/kg oral x5 days",96%
same,TMZ median survival,"GBM59 xenograft; GBM59 intracranial xenograft, nude mice, TMZ 66 mg/kg oral daily x5 days",90
same,additional survival from second TMZ dose,"[1]; second TMZ dose at time of tumor regrowth/recurrence, beyond single-dose prolongation",22 days
same,survival prolongation with a single TMZ dose,"[1]; single dose of 120 mg/kg TMZ, relative to placebo/vehicle, intracranial GBM14-luciferase",56 days
